Experimental data taken from ChEMBL document CHEMBL3044888, “Fungicidal activity of indole derivatives against some plant pathogenic fungi” (J Pestic Sci, 2010).
Values after ≈ are worked out from the molar mass of the structure shown.

Tests used:
Format in all cases: functional, organism-based
Rhizoctonia solani = test: Fungicidal activity against Rhizoctonia solani assessed as inhibition of hyphal growth by radial growth test
Fusarium culmorum = test: Fungicidal activity against Fusarium culmorum assessed as inhibition of hyphal growth by radial growth test
Macrophomina phaseolina = test: Fungicidal activity against Macrophomina phaseoli assessed as inhibition of hyphal growth by radial growth test
[1] = test system: Globisporangium debaryanum; test: Fungicidal activity against Pythium debaryanum assessed as inhibition of hyphal growth by radial growth test

## COCC(=O)N(c1c(C)cccc1C)C(C)C(=O)OC (stereo not drawn) [METALAXYL]
Rhizoctonia solani
  IC50: 231 µg/mL (≈ 827 µM)
Fusarium culmorum
  IC50: 192 µg/mL (≈ 687 µM)
Macrophomina phaseolina
  IC50: 173 µg/mL (≈ 619 µM)
[1]
  IC50: 211 µg/mL (≈ 755 µM)

## O=C(O)Cc1c[nH]c2ccccc12 [INDOLE-3-ACETIC ACID]
Rhizoctonia solani
  IC50: 1010 µg/mL (≈ 5760 µM)
Fusarium culmorum
  IC50: 420 µg/mL (≈ 2400 µM)
Macrophomina phaseolina
  IC50: 807 µg/mL (≈ 4610 µM)
[1]
  IC50: 301 µg/mL (≈ 1720 µM)

## O=C(O)CCCc1c[nH]c2ccccc12
Rhizoctonia solani
  IC50: 644 µg/mL (≈ 3170 µM)
Fusarium culmorum
  IC50: 576 µg/mL (≈ 2830 µM)
Macrophomina phaseolina
  IC50: 699 µg/mL (≈ 3440 µM)
[1]
  IC50: 249 µg/mL (≈ 1230 µM)

## O=C(c1ccccc1)n1c(-c2ccccc2)cc2ccccc21
Rhizoctonia solani
  IC50: 122 µg/mL (≈ 411 µM)
Fusarium culmorum
  IC50: 99.9 µg/mL (≈ 336 µM)
Macrophomina phaseolina
  IC50: 355 µg/mL (≈ 1190 µM)
[1]
  IC50: 81 µg/mL (≈ 272 µM)

## O=C(O)Cc1cn(C(=O)c2ccccc2)c2ccccc12
Rhizoctonia solani
  IC50: 1240 µg/mL (≈ 4450 µM)
Fusarium culmorum
  IC50: 523 µg/mL (≈ 1870 µM)
Macrophomina phaseolina
  IC50: 572 µg/mL (≈ 2050 µM)
[1]
  IC50: 171 µg/mL (≈ 612 µM)

## O=C(O)CCCc1cn(C(=O)c2ccccc2)c2ccccc12
Rhizoctonia solani
  IC50: 663 µg/mL (≈ 2160 µM)
Fusarium culmorum
  IC50: 513 µg/mL (≈ 1670 µM)
Macrophomina phaseolina
  IC50: 448 µg/mL (≈ 1460 µM)
[1]
  IC50: 488 µg/mL (≈ 1590 µM)

## CC(=O)n1cc(CCCC(=O)O)c2ccccc21
Rhizoctonia solani
  IC50: 117 µg/mL (≈ 477 µM)
Fusarium culmorum
  IC50: 26.6 µg/mL (≈ 108 µM)
Macrophomina phaseolina
  IC50: 59 µg/mL (≈ 241 µM)
[1]
  IC50: 19 µg/mL (≈ 77.5 µM)
